# Assay results reported in patent US6506767B1, “8-chloro-6,11-dihydro-11-(4-piperidylidine)-5H-benzo[5,6]cyclohepta[1-2-b] pyridine” (Schering Corporation, priority 1997, dated 2003).
# Assays:
# [1] = Stability testing for crystalline polymorph form 1; assay type: physicochemical; conditions: 25, 30 and 40° C. at relative humidities of 60%, 60% and 75%, respectively
# [2] = test system: histamine—induced lethality in guinea pigs; assay: prevention of histamine-induced lethality in guinea pigs; assay type: in vivo; conditions: standard animal model
smiles,measurement,setting,value
"Clc1ccc2c(c1)CCc1cccnc1C2=C1CCNCC1 [form 1, 8-chloro-6,11-dihydro-11-(4-piperidylidene)-5H-benzo[5,6]cyclohepta[1,2-b]pyridine]",change from initial sample % form 1 and related compounds,[1],< 1%
same,antihistaminic properties: prevention of histamine—induced lethality,[2],demonstrated
